This note sets out measurements from patent US4678775A, “Method of controlling pests” (priority 1984, dated 1987).

The structures appear in SMILES notation. Read-outs that look alike come from different tables or passages of the source.

The subject of data set [1] is octopamine-sensitive adenylate cyclase. Nature of the data set: Activation of octopamine-sensitive adenylate cyclase, firefly light organ broken cell preparation. In kind it is biochemical, Photinus pyralis.
For data set [2], the system named is tobacco hornworms (Manducca sexta). Nature of the data set: In vivo leaf test (antifeeding) on tomato leaves with tobacco hornworm larvae. As to conditions: for effect of addition of IBMX on antifeeding / pesticidal activity: with PDE inhibitor IBMX.
Data set [3] has as its system adenylate cyclase in nerve cord of tobacco hornworm. Nature of the data set: Adenylate cyclase activation in broken cell preparations of tobacco hornworm nerve cord. The data set is classed as biochemical, tobacco hornworm (Manducca sexta). As to conditions: FIG. 1. How it is done:
Otherwise, the procedure is identical to that described above.
The tissue is homogenized (usually 15 mg/ml) as above in 6 mM Tris maleate, pH 7.4. […] This is done to cancel out the effects of dopamine and serotonin receptors which are usually present in nerve cord.
As detailed previously, the adenylate cyclase assay, either in the firefly or in other insect pest, is also used to identify a direct stimulator of adenylate cyclase.

For data set [4], the system named is cyclic AMP in intact nerve cords of tobacco hornworms. Nature of the data set: Cyclic AMP content of intact tobacco hornworm nerve cords. In kind it is cell-based. As to conditions: 5 minutes. How it is done: After 5 minutes, the intact nerve cord was quickly treated to release all cyclic AMP which was present within the tissue.
Setting [5] is: Table 1, ratio greater than 1 = better than (±)-p-octopamine.
Setting [6] is: Table 4, agonist 10^-1 gm/100 ml, No PDE Inhibitor.
Setting [7] is: Table 4, agonist 10^-2 gm/100 ml, No PDE Inhibitor.
Setting [8] is: Table 1, maximal activation as % of that by (±)-p-octopamine, N.A. = No Activity.
[9] abbreviates: Table 2, clonidines, N.A. = no activity.
[10] abbreviates: Table 5, agonist 1 gm/100 ml, IBMX 0.1 g/100 ml.
Where [11] appears, read: Table 5, agonist 1 gm/100 ml, No PDE Inhibitor.
The mark [12] stands for this setting: Table 5, agonist 10^-1 gm/100 ml, IBMX 0.1 g/100 ml.
Where [13] appears, read: Table 5, agonist 10^-1 gm/100 ml, No PDE Inhibitor.
[14] abbreviates: Table 5, agonist 10^-2 gm/100 ml, IBMX 0.1 g/100 ml.
Setting [15] is: Table 5, agonist 10^-2 gm/100 ml, No PDE Inhibitor.

For the molecule `CN(C)CC(O)c1ccc(O)cc1` (racemic) [(±)-N,Ndimethyloctopamine, reference compound], the “Ka^oct/Ka^(1) ratio (column head is drawing 15)” value (from here on “Ka^oct/Ka^(1) ratio”) in data set [1] (setting [5]) was 0.9.

On to `CNCC(O)c1ccc(O)cc1` (racemic) [(±)-Nmethyloctopamine], for which the “Ka^oct/Ka^(1) ratio” value in data set [1] was found to be 1.8. Moreover, the “% Leaf Remaining” value in data set [2] (Table 4, agonist 1 gm/100 ml, IBMX 0.1 g/100 ml) is given as 90%; in data set [2] (Table 4, agonist 1 gm/100 ml, No PDE Inhibitor), 30%; in data set [2] (Table 4, agonist 10^-1 gm/100 ml, IBMX 0.1 g/100 ml), 55%; in data set [2] (setting [6]), below 5%; in data set [2] (Table 4, agonist 10^-2 gm/100 ml, IBMX 0.1 g/100 ml), 42%; in data set [2] (setting [7]), below 5%.

As to `NCC(O)c1cccc(O)c1` (racemic) [(±)-m-octopamine, reference compound], in data set [1] (setting [8]), the “Vmax (% OCT)” value stood at 9 ± 1 % OCT. In addition, the “Ka^oct/Ka^(1) ratio” value in data set [1] (setting [5]) was found to be 0.1. Moreover, the pesticidal activity entry in data set [2] (no IBMX) is on record as “much less pesticidal activity than p-octopamine”.

With `CC(N)C(O)c1ccccc1` (racemic) [(±)-norephedrine, reference compound], the “Ka^oct/Ka^(1) ratio” value in data set [1] is reported as below 0.09. Moreover, the “Vmax (% OCT)” value in data set [1] (setting [8]) was found to be 8 ± 1 % OCT.

As to `COc1cc(C(O)CN)ccc1O` (racemic) [(±)-normetanephrine, reference compound], the “Ka^oct/Ka^(1) ratio” value in data set [1] (setting [5]) was determined as 0.07.

Consider `NCC(O)c1ccccc1O` (racemic) [(±)-o-octopamine, reference compound], for which the “Ka^oct/Ka^(1) ratio” value in data set [1] (setting [5]) is given as 0.05.

`CC(N)Cc1ccc(O)cc1` (racemic) [(±)-p-hydroxyamphetamine, reference compound]: the “Ka^oct/Ka^(1) ratio” value in data set [1] is reported as below 0.05. For the same molecule, the “Vmax (% OCT)” value in data set [1] (setting [8]) was found to be 8 ± 3 % OCT.

As to `CC(N)C(O)c1ccc(O)cc1` (racemic) [(±)-α-methyloctopamine, reference compound], in data set [1] (setting [8]), the “Vmax (% OCT)” value turned out to be 44 ± 2 % OCT. Besides, the “Ka^oct/Ka^(1) ratio” value in data set [1] (setting [5]) turned out to be 0.05.

Turning to `CNC(C)C(O)c1ccc(O)cc1` (racemic) [(±)-α-methylsynephrine, reference compound], the “Vmax (% OCT)” value in data set [1] (setting [8]) came out at 7 ± 2 % OCT. In data set [1] (setting [5]), the “Ka^oct/Ka^(1) ratio” value is given as below 0.01.

Regarding `NC[C@@H](O)c1ccc(O)cc1` [(+)-p-octopamine, reference compound], in data set [1] (setting [8]), the “Vmax (% OCT)” value is on record as 81 ± 1 % OCT.

As for `CNC[C@H](O)c1ccc(O)c(O)c1` [(-)-epinephrine, reference compound], the “Ka^oct/Ka^(1) ratio” value in data set [1] is 0.20.

As to `NC[C@H](O)c1ccc(O)c(O)c1` [(-)-nonrepinephrine, reference compound], in data set [1] (setting [5]), the “Ka^oct/Ka^(1) ratio” value was found to be 0.13.

As for `CNC[C@H](O)c1cccc(O)c1` [(-)-phenylephrine, reference compound], the “Ka^oct/Ka^(1) ratio” value in data set [1] (setting [5]) was below 0.2.

On to `Cc1cc(Cl)ccc1N=CN` [DDCDM, di-demethylchlordimeform, reference compound], for which the “activation of adenylate cyclase in nerve cord” value in data set [3] is reported as “potent activators”. Also, in data set [2] (based on the EC50 of the octopamine agonist, alone or +IBMX), the “rank order antifeeding effectiveness” value is recorded as “DDCDM+IBMX=NC7+IBMX>Octopamine+IBMX=DDCDM alone>NC7 alone>octopamine alone”. Further, the “Cyclic AMP Content (Fold-increase over Control)” value in data set [4] (+0.1 mM IBMX) was 11.1 ± 2.7 Fold-increase over Control; in data set [4] (-IBMX) it was 5.4 ± 3.8 Fold-increase over Control.

As to `Clc1ccc(Cl)c(N=C2NCCN2)c1` [NC 2], the “Ka ratio to octopamine” value in data set [1] (Table 2, clonidines) is given as 1.1. Also, the “Vmax (% OCT)” value in data set [1] (setting [9]) is 9 % OCT.

As to `Clc1cc(Cl)c(N=C2NCCN2)cc1Cl` [NC 3], in data set [1], the octopamine potency ratio is on record as 3.0. For the same molecule, in data set [1] (Table 2, clonidines), the “Ka ratio to octopamine” value worked out at 2.8. Further, the “Vmax (% OCT)” value in data set [1] (setting [9]) worked out at 80 % OCT.

With `Cc1cccc(C)c1N=C1NCCN1` [NC 4], the “Ka ratio to octopamine” value in data set [1] (Table 2, clonidines) is recorded as 0.41. For the same molecule, the “Vmax (% OCT)” value in data set [1] (setting [9]) is reported as 80 % OCT.

For `Brc1cccc(Br)c1N=C1NCCN1` [NC 6], the “Ka ratio to octopamine” value in data set [1] (Table 2, clonidines) is reported as 2.1. The “Vmax (% OCT)” value in data set [1] (setting [9]) is 35 % OCT.

For `Clc1ccc(N=C2NCCN2)c(Cl)c1` [NC 8], in data set [1], the octopamine potency ratio is 3.7. Further, the “Ka ratio to octopamine” value in data set [1] (Table 2, clonidines) is 3.7. In addition, the “Vmax (% OCT)” value in data set [1] (setting [9]) worked out at 47 % OCT.

With `Cc1ccc(N=C2NCCN2)c(C)c1` [NC 9], the octopamine potency ratio in data set [1] is reported as 5.1. In addition, the “Ka ratio to octopamine” value in data set [1] (Table 2, clonidines) amounted to 5.1. The “Vmax (% OCT)” value in data set [1] (setting [9]) is 78 % OCT.

For the molecule `c1ccc(N=C2NCCN2)cc1` [NC 10], the “% Leaf Remaining” value in data set [2] (setting [10]) was determined as 15%; in data set [2] (setting [11]) it was 5%; in data set [2] (setting [12]), 13%; in data set [2] (setting [13]) it was 5%; in data set [2] (setting [14]), 15%; in data set [2] (setting [15]), 5%. Also, the “% Leaf Remaining” value in data set [2] (Table 5, agonist 10^-3 gm/100 ml, IBMX 0.1 g/100 ml) worked out at 12%; in data set [2] (Table 5, agonist 10^-3 gm/100 ml, No PDE Inhibitor) it was 5%. Further, the antifeeding activity entry in data set [2] (compound itself, in words) is reported as “lacked antifeeding activity both in the absence or presence of the PDE inhibitor”.

On to `Clc1cc(Cl)c(N=C2NCCN2)c(Cl)c1` [NC 11], for which the “Ka ratio to octopamine” value in data set [1] (Table 2, clonidines) was determined as 1.9. For the same molecule, the “Vmax (% OCT)” value in data set [1] (setting [9]) was 60 % OCT.

For the molecule `Brc1ccc(N=C2NCCN2)cc1` [NC 12], in data set [1] (Table 2, clonidines), the “Ka ratio to octopamine” value came to 3.0. For the same molecule, in data set [1] (setting [9]), the “Vmax (% OCT)” value amounted to 34 % OCT.

Turning to `Cc1cc(C)c(N=C2NCCN2)c(C)c1` [NC 13], the octopamine potency ratio in data set [1] is listed as 4.3. Further, the “Ka ratio to octopamine” value in data set [1] (Table 2, clonidines) was found to be 4.3. Also, the “Vmax (% OCT)” value in data set [1] (setting [9]) turned out to be 112 % OCT.

Regarding `Nc1cc(Cl)c(N=C2NCCN2)c(Cl)c1` [NC 14], the “Ka ratio to octopamine” value in data set [1] (Table 2, clonidines) was determined as 0.7. Moreover, in data set [1] (setting [9]), the “Vmax (% OCT)” value amounted to 29 % OCT.

Consider `CN(C)c1cc(Cl)c(N=C2NCCN2)c(Cl)c1` [NC 15], for which the “Ka ratio to octopamine” value in data set [1] (Table 2, clonidines) is recorded as 1.9. Moreover, the “Vmax (% OCT)” value in data set [1] (setting [9]) is listed as 38 % OCT.

With `CN(CCCl)c1cc(Cl)c(N=C2NCCN2)c(Cl)c1` [NC 16], in data set [1] (Table 2, clonidines), the “Ka ratio to octopamine” value was found to be 4.8. The “Vmax (% OCT)” value in data set [1] (setting [9]) turned out to be 6 % OCT.

Take `CNCCc1ccc(O)c(O)c1` [Nmethyldopamine, reference compound]: in data set [1] (setting [5]), the “Ka^oct/Ka^(1) ratio” value was 0.19.

For `Clc1cccc(Cl)c1N=C1NCCN1` [clonidine, reference compound], in data set [1], the “Ka ratio to octopamine” value was 0.95. Moreover, the octopamine potency ratio in data set [1] is recorded as 0.9. Moreover, in data set [1] (light organ homogenate), the “Vmax (% OCT)” value is 35 % OCT. Moreover, the “Vmax, % that of octopamine” value in data set [1] (light organ homogenate) turned out to be 35%. In addition, the “% Leaf Remaining” value was found to be 63% in data set [2] (setting [10]); 65% in data set [2] (setting [11]); 55% in data set [2] (setting [12]); 20% in data set [2] (setting [13]); 55% in data set [2] (setting [14]); 5% in data set [2] (setting [15]). In addition, the “effect of addition of IBMX on antifeeding / pesticidal activity” value in data set [2] is reported as “substantial increases in the potency”.

With `NCCc1ccc(O)c(O)c1` [dopamine, reference compound], in data set [1] (setting [8]), the “Vmax (% OCT)” value was determined as 4 ± 1 % OCT. The “Ka^oct/Ka^(1) ratio” value in data set [1] (setting [5]) was 0.26.

As to `NCC(O)c1ccc(O)c(Cl)c1` (stereo not shown) [m-chloro-octopamine], the “Ka^oct/Ka^(1) ratio” value in data set [1] (setting [5]) was found to be 0.28.

Turning to `Nc1ncnc2c1nc(Sc1ccc(Cl)cc1)n2[C@@H]1O[C@@H]2COP(=O)(O)O[C@H]2[C@H]1O` [p-Cl-phenylthio cyclic AMP, 8-p-chlorophenylthio-cyclic AMP, reference compound], the antifeeding activity result in data set [2] (concentration of 1%, absence of IBMX) is “showed antifeeding activity”. Further, the “effect of addition of IBMX on antifeeding / pesticidal activity” value in data set [2] was “increased by addition of IBMX”.

Consider `NCC(O)c1ccc(F)cc1` (stereo not shown) [p-fluoro-phenylethanolamine], for which the “% Leaf Remaining” value in data set [2] (setting [6]) is on record as below 5%; in data set [2] (setting [7]), below 5%; in data set [2] (Table 4, agonist 10^-3 gm/100 ml, IBMX 0.1 g/100 ml), 50%; in data set [2] (Table 4, agonist 10^-3 gm/100 ml, No PDE Inhibitor) it was below 5%.

For `COc1ccc(CCN)cc1` [p-methoxyphenylethylamine, reference compound], in data set [1] (setting [8]), the “Vmax (% OCT)” value is reported as 6 ± 3 % OCT. Besides, the “Ka^oct/Ka^(1) ratio” value in data set [1] (setting [5]) is on record as 0.10.

Consider `NCCc1ccc(O)cc1` [tyramine, reference compound], for which the “Ka^oct/Ka^(1) ratio” value in data set [1] (setting [5]) is on record as 0.15.

For `NCCc1ccccc1` [β-phenylethylamine, reference compound], the “Ka^oct/Ka^(1) ratio” value in data set [1] was 0.03.
